According to paper PMC9231284, “Hesperidin Bioavailability Is Increased by the Presence of 2S-Diastereoisomer and Micronization—A Randomized, Crossover and Double-Blind Clinical Trial” (Nutrients, 2022):

Experiments:
[1] = parameters: method as in PMID 18058792; conditions: rats, intravenous administration of racemic hesperetin; cited from earlier work
[2] = parameters: method as in PMID 28747329, PMID 26861391, PMID 30669635; conditions: humans, oral; cited from earlier work
[3] = cited from earlier work
[4] = First phase: relative urinary hesperidin excretion in 24 h urine after 500 mL orange juice with 345 mg hesperidin; type: in vivo, human; conditions: for Relative urinary hesperidin excretion, low excretors: N=3, mean ± SD
Description: The study consisted of two phases. In the first phase, 30 volunteers consumed 500 mL of orange juice (OJ) with 345 mg of hesperidin [9], and the levels of hesperidin excreted in urine were determined. The OJ used in the first phase of the study was the hesperidin OJ used in previous studies conducted by our group. The objective of this first phase of the study was to select volunteers with intermediate hesperidin metabolite levels excreted in urine to reduce the variability in the results in the second phase of the study.
For the first phase of the study—after at least 8 h of fasting—the participants’ urine was collected before the intake of 500 mL of OJ (basal urine) and after the intake of the OJ for 24 h, accumulated in a single volume urine (Figure 1). Urine samples were homogenized and centrifuged at 1900 g for 10 min at 4 °C, and the supernatant was collected and subdivided into aliquots which were stored at −80 °C until analysis.
Relative urinary hesperidin excretion values (% of hesperidin ingested) obtained in the first phase of the study were used to select the participants for the second phase of the study. It was calculated by the ratio between the sum of hesperidin metabolites and the amount of hesperidin consumed by the participants (345 mg). With these values, 18 volunteers with intermediate relative urinary hesperidin excretion values were selected for the second phase.
To obtain the main and secondary outcomes, the urinary levels of hesperidin metabolites and catabolites at baseline—before consuming the hesperidin supplement—and up to 24 h after consuming the hesperidin supplement in four urine fractions (0–3 h; 3–6 h; 6–8 h; 8–24 h) were determined. In addition, the serum levels of hesperidin metabolites and catabolites at baseline and at 2 h, 3 h, 4 h, 5 h, 6 h, 7 h, 8 h and 24 h after consuming the hesperidin supplement were quantified. To obtain the relative urinary hesperidin excretion in the first phase of the study, the urinary levels of hesperidin metabolites before consuming the OJ and in the 24 h urine after consuming the hesperidin supplement were determined.
Hesperetin and related metabolites were determined in urine and serum samples by liquid chromatography coupled to triple quadrupole mass spectrometry (LC-QqQ) using a UHPLC 1290 Infinity II Series coupled to a QqQ/MS 6490 Series (Agilent Technologies, Palo Alto, CA, USA) and an ACQUITY UPLC BEH C18 (100 × 2.1 mm; 1.8 µm) column (Waters, Milford, MA, USA). Mobile phase A was 100% water with 0.5% acetic acid and 10 mM ammonium acetate, and mobile phase B was 100% methanol. The column temperature was set at 45 °C and the injection volume was 5 µL. The triple quadrupole operated in negative electrospray ionization mode (ESI-). The source conditions were set at 25 psi for the nebulizer gas, 240 °C for the gas temperature, 17 L/min for the gas flow, 250 °C for the sheath gas temperature, 12 L/min for the sheath gas flow, 3500 V for the capillary voltage and 0 V for the nozzle voltage. The standards used for quantification purposes were: Hesperetin and Hesperidin (Extrasynthese, Genay, France); Hesperetin 7-O-beta-D-glucuronide, Hesperetin 3-O-beta-D-glucuronide and Hesperetin 7,3′-di-O-beta-D-glucuronide (Toronto Research Chemicals; North York, ON, Canada); Hesperitin 7-O-sulfate (Santa Cruz Biotechnology, Dallas, TX, USA). Hesperitin-d3 and Diosmetin 7-O-β-D-Glucuronide-d3 (Toronto Research Chemicals; North York, ON, Canada) were used as internal standards. […]

Structure (SMILES)	AUC of R-diastereoisomer compared to S-diastereoisomer [1]	Share of ingested hesperidin that reaches the large intestine [2]	Solubility [3]	Water solubility [3]	Relative urinary hesperidin excretion, low excretors [4]	Relative urinary hesperidin excretion, low excretors ([4]; listed as Hesperidin)	Relative urinary hesperidin excretion, high excretors ([4]; N=4, mean ± SD)	Relative urinary hesperidin excretion, intermediate excretors ([4]; N=21, mean ± SD)	Mean relative urinary hesperidin excretion determined as hesperetin or hesperetin conjugates in urine ([4]; all participants N=28, mean ± SD)
COc1ccc([C@H]2CC(=O)c3c(O)cc(O)cc3O2)cc1O [R-diastereoisomer, hesperetin]	3.2 fold								
COc1ccc([C@@H]2CC(=O)c3c(O)cc(O[C@@H]4O[C@H](CO[C@@H]5O[C@@H](C)[C@H](O)[C@@H](O)[C@H]5O)[C@@H](O)[C@H](O)[C@H]4O)cc3O2)cc1O [hesperidin, hesperetin-7-O-rutinoside]		70%	low	poor	0.74 ± 0.11%	0.743 ± 0.112%	6.06 ± 1.46%	2.31 ± 1.01%	2.67 ± 1.79%
